Series [1] is described as follows: Cytotoxicity by MTT test on Thp1 cell line. The settings on record: human. Type of series: cell-based, humains. The procedure:
(§1) L'évaluation de la cytotoxicité des complexes selon l'invention par test MTT sur la lignée cellulaire Thp1 (lignée cellulaire de monocytes humains) a été réalisée selon Mosmann avec de légères modifications. En bref, les cellules (0,77.10^5 cellules/ml) dans 200 µL du milieu complet [RPMI 1640 supplémenté avec 10% de sérum de veau fœtal (FCS), 2 mM de L-glutamine et des antibiotiques (100 U/ml) pénicilline et 100 µg/ml de streptomycine)]+ PMA (50 ng/ml) ont été ensemencées dans chaque puits de plaques à 96 puits et incubées à 37°C sous atmosphère humidifiée à 5% de CO2 avec 95% d'air. Après une incubation de 96 h, les plaques ont été lavées 3 fois avec du milieu et 100 µl de milieu ont été ajoutés. Diverses concentrations et contrôles appropriés ont ensuite été ajoutés (100 µl) et les plaques ont été incubées pendant 72 h à 37°C.
(§2) Chaque puits a ensuite été examiné au microscope pour détecter la formation possible de précipité avant l'aspiration du milieu. Une solution de MTT (0,5 mg/ml dans du RPMI, 100 µl) a ensuite été ajoutée à chaque puits. Les cellules ont été incubées pendant 2 h à 37°C. La solution de MTT a ensuite été éliminée et du DMSO (100 µl) a été ajouté pour dissoudre les cristaux de formazan résultants. Les plaques ont été secouées vigoureusement (300 tr/min) pendant 5 min.
(§3) L'absorbance a été mesurée à 570 nm avec un spectrophotomètre pour microplaques. Le DMSO a été utilisé comme blanc et la doxorubicine (Sigma Aldrich) comme contrôle positif. Les CC50 ont été calculés par analyse de régression non linéaire traitée sur des courbes dose-réponse, à l'aide du logiciel TableCurve 2D V5.
On the technique in general: Tetrazolium dyes change colour on reduction, which living cells bring about.

Series [2] deals with amastigotes axéniques de L. infantum. The series can be described thus: Anti-leishmanial activity on axenic amastigotes of L. infantum (luciferase luminescence).
In a further series the test system is lignée cellulaire Thp1. The series can be described thus: Cytotoxicity by MTT test on Thp1 cell line. Format: cell-based, humains. The procedure:
as §1, §2, §3

The mark [3] stands for this setting: Tableau 2, 72 h incubation, mean of three independent experiments, read-out: Thp1 CC50.
Where [4] appears, read: read-out: CC50 sur la lignée cellulaire humaine Thp1.
Where [5] appears, read: Leishmania infantum, read-out: Amastigotes axéniques de L. infantum CI50.
The mark [6] stands for this setting: Tableau 2, CC50 Thp1 / CI50 axenic amastigotes of L. infantum.
[7] abbreviates: Tableau 3, separate experiments, mean of three independent experiments, read-out: Thp1 CC50.
Setting [8] is: Leishmania infantum, read-out: Amastigotes axéniques de L. infantum CI50, Tableau 2, mean of three independent experiments.
Where [9] appears, read: Leishmania infantum, read-out: Amastigotes axéniques de L. infantum CI50, Tableau 3, separate experiments, mean of three independent experiments.
Where [10] appears, read: Tableau 3, separate experiments, CC50 Thp1 / CI50 axenic amastigotes.

Like-named read-outs stand apart in the source and are kept apart here. Where only a bound is given, the exact number is not on record here.

Data on 34 molecules can be found in EP4271680B1, “GOLD (I) COMPLEXES WITH FLUORINATED N-HETEROCYCLIC CARBENE LIGANDS AND USE THEREOF AS THERAPEUTIC AGENTS” (priority 2020, dated 2022).

Turning to `CSc1ccc(OCc2ncc([N+](=O)[O-])n2C)cc1` [Fexinidazole, reference compound], the CC50 at 72 h in series [1] (setting [3]) and in series [1] (setting [4]) was over 355 µM throughout. Besides, in series [2] (setting [5]), the IC50 stood at 3.4 µM. Further, the “Indice de sélectivité CC50/IC50 SI” value in series [2] (setting [6]) is on record as >104,41; in series [2] (Tableau 2, CC50 Thp1 / CI50 axenic amastigotes of L. infantum, listed as fexinidazole) it was > 104,41.

`FC(F)(F)c1ccc(-n2cc[n+](-c3ccc4ccccc4n3)c2)cc1` [compound 20]: the IC50 in series [2] (setting [5]) is over 50 µM.

With `COc1cccc2c1C(=O)c1c(O)c3c(c(O)c1C2=O)C[C@@](O)(C(=O)CO)C[C@@H]3O[C@H]1C[C@H](N)[C@H](O)[C@H](C)O1` [Doxorubicine], the CC50 at 72 h in series [1] (setting [3]) and in series [1] (setting [7]) was 0.7 µM in each case.

On to `CCCCCCCCCCCCCCCCOP(=O)([O-])OCC[N+](C)(C)C` [Miltéfosine, reference compound], for which the CC50 in the series with lignée cellulaire Thp1 (setting [7]) and with lignée cellulaire Thp1 (setting [4]) was 35 µM in each case. For the same molecule, the IC50 in series [2] (setting [8]) came out at 0.71 µM; in series [2] (setting [9]), 0.46 µM. In addition, the “Indice de sélectivité CC50/IC50 SI” value in series [2] (setting [6]) is on record as 49,32; in series [2] (Tableau 2, CC50 Thp1 / CI50 axenic amastigotes of L. infantum, listed as miltéfosine), 53,06; in series [2] (setting [10]), 76,13.

Consider `FC(F)(F)Oc1cccc(-n2cc[n+](Cc3ccccc3)c2)c1` [compound 8, Chlorurede 3-Benzyl-1-(3-(trifluoromethoxy)phenyl)-1H-imidazol-3-ium chloride], for which the IC50 in series [2] (setting [5]) is over 50 µM.

For `FC(F)(F)c1cc(-n2cc[n+](Cc3ccccc3)c2)cc(C(F)(F)F)c1` [compound 7, Chlorurede 3-Benzyl-1-(3,5-bis(trifluoromethyl)phenyl)-1H-imidazol-3-ium], in series [2] (read-out: Amastigotes axéniques de L. infantum CI50, Tableau 2, mean of three independent experiments), the IC50 was over 50 µM.

Turning to `CC(=O)OCC1OC([S][Au-][c]2n(-c3cc(C(F)(F)F)cc(C(F)(F)F)c3)cc[n+]2C(C)C)C(OC(C)=O)C(OC(C)=O)C1OC(C)=O` (stereo not shown) [Complexe 39], the “Indice de sélectivité CC50/IC50 SI” value in series [2] (setting [6]) is 18,79.

Consider `FC(F)(F)Oc1ccc(-n2cc[n+](-c3ccc4ccccc4n3)c2)cc1` [compound 16, Chlorurede 3-(Quinolin-2-yl)-1-(4-(trifluoromethoxy)phenyl)-1H-imidazol-3-ium], for which the IC50 in series [2] (setting [5]) was over 50 µM.

Take `CC(C)[n+]1ccn(-c2ccc(OC(F)(F)F)cc2)[c]1[Au-][Cl]` [Complexe 26]: the “Indice de sélectivité CC50/IC50 SI” value in series [2] (setting [6]) is 118,53.

With `CC(C)[n+]1ccn(-c2ccc(OC(F)(F)F)cc2)c1` [compound 11, Bromurede 3-Isopropyl-1-(4-(trifluorométhoxy)phényl)-1H-imidazol-3-ium], the IC50 in series [2] (setting [5]) is over 50 µM.

`FC(F)(F)Oc1cccc(-n2cc[n+](Cc3ccccc3)[c]2[Au-][Cl])c1` [Complexe 23]: the “Indice de sélectivité CC50/IC50 SI” value in series [2] (setting [6]) is 62,55.

As for `FC(F)(F)c1ccc(-n2cc[n+](Cc3ccccc3)c2)cc1` [compound 10, Chlorurede 3-Benzyl-1-(4-(trifluoromethyl)phenyl)-1H-imidazol-3-ium chloride], the IC50 in series [2] (setting [5]) was over 50 µM.

Consider `CC(C)[n+]1ccn(-c2ccc(F)cc2)c1` [compound 14, Bromurede 1-(4-Fluorophényl)-3-isopropyl-1H-imidazol-3-ium], for which the IC50 in series [2] (setting [5]) was over 50 µM.

For the molecule `FC(F)(F)Oc1cccc(-n2cc[n+](-c3ccc4ccccc4n3)[c]2[Au-][Cl])c1` [Complexe 33], the “Indice de sélectivité CC50/IC50 SI” value in series [2] (setting [6]) is listed as 129,70.

As for `FC(F)(F)c1cc(-n2cc[n+](Cc3ccccc3)[c]2[Au-][Cl])cc(C(F)(F)F)c1` [Complexe 22], the “Indice de sélectivité CC50/IC50 SI” value in series [2] (setting [6]) is recorded as 47,09.

`CC(=O)OCC1OC([S][Au-][c]2n(-c3cc(C(F)(F)F)cc(C(F)(F)F)c3)cc[n+]2Cc2ccccc2)C(OC(C)=O)C(OC(C)=O)C1OC(C)=O` (stereo not shown) [Complexe 37]: the “Indice de sélectivité CC50/IC50 SI” value in series [2] (setting [6]) was 30,63.

In the case of `CC(C)[n+]1ccn(-c2cccc(OC(F)(F)F)c2)c1` [compound 13, Bromurede 3-Isopropyl-1-(3-(trifluorométhoxy)phényl)-1H-imidazol-3-ium], the IC50 in series [2] (setting [5]) is over 50 µM.

Turning to `CC(C)[n+]1ccn(-c2cc(C(F)(F)F)cc(C(F)(F)F)c2)c1` [compound 12, Bromurede 1-(3,5-Bis(trifluorométhyl)phényl)-3-isopropyl-1H-imidazol-3-ium], in series [2] (setting [5]), the IC50 is over 50 µM.

As to `Fc1ccc(-n2cc[n+](-c3ccc4ccccc4n3)c2)cc1` [compound 19, Chlorurede 1-(4-Fluorophenyl)-3-(quinolin-2-yl)-1H-imidazol-3-ium], the IC50 in series [2] (setting [5]) was over 50 µM.

Take `CC(C)[n+]1ccn(-c2cc(C(F)(F)F)cc(C(F)(F)F)c2)[c]1[Au-][Cl]` [Complexe 27]: the “Indice de sélectivité CC50/IC50 SI” value in series [2] (setting [6]) is 119,72.

With `CC(=O)OCC1OC([S][Au-][c]2n(-c3ccc(OC(F)(F)F)cc3)cc[n+]2Cc2ccccc2)C(OC(C)=O)C(OC(C)=O)C1OC(C)=O` (stereo not shown) [Complexe 36], the “Indice de sélectivité CC50/IC50 SI” value in series [2] (setting [6]) is listed as 53,92.

On to `CC(C)[n+]1ccn(-c2ccc(C(F)(F)F)cc2)c1` [compound 15, Bromurede 3-Isopropyl-1-(4-(trifluoromethyl)phenyl)-1H-imidazol-3-ium], for which, in series [2] (setting [5]), the IC50 was over 50 µM.

With `Fc1ccc(-n2cc[n+](Cc3ccccc3)c2)cc1` [compound 9, Chlorurede 3-Benzyl-1-(4-fluorophenyl)-1H-imidazol-3-ium chloride], the IC50 in series [2] (setting [5]) is over 50 µM.

In the case of `N=C(N)c1ccc(OCCCCCOc2ccc(C(=N)N)cc2)cc1` [Pentamidine, reference compound], the CC50 – broadly, the concentration that lowers cell viability or growth by half – at 72 h is over 50 µM in series [1] (setting [3]), 65.9 ± 7.49 µM in series [1] (setting [7]) and over 50 µM in series [1] (setting [4]). The IC50 in series [2] (setting [8]) came out at 10.5 µM; in series [2] (setting [9]), 1.36 µM. Besides, the “Indice de sélectivité CC50/IC50 SI” value was >4,74 in series [2] (setting [6]); > 4,74 in series [2] (Tableau 2, CC50 Thp1 / CI50 axenic amastigotes of L. infantum, listed as pentamidine); 48.43 in series [2] (setting [10]).

As to `FC(F)(F)c1ccc(-n2cc[n+](-c3ccc4ccccc4n3)[c]2[Au-][Cl])cc1` [Complexe 35], the “Indice de sélectivité CC50/IC50 SI” value in series [2] (setting [6]) was 130,05.

With `CC(C)[n+]1ccn(-c2ccc(F)cc2)[c]1[Au-][Cl]` [Complexe 29], the “Indice de sélectivité CC50/IC50 SI” value in series [2] (setting [6]) is listed as 178,50.

With `FC(F)(F)Oc1ccc(-n2cc[n+](Cc3ccccc3)c2)cc1` [compound 6, Chlorurede 3-Benzyl-1-(4-(trifluorométhoxy)phényl)-1H-imidazol-3-ium], in series [2] (setting [5]), the IC50 was over 50 µM.

Turning to `CC(=O)OCC1OC([S][Au-][c]2n(-c3cccc(OC(F)(F)F)c3)cc[n+]2Cc2ccccc2)C(OC(C)=O)C(OC(C)=O)C1OC(C)=O` (stereo not shown) [Complexe 38], in series [2] (setting [6]), the “Indice de sélectivité CC50/IC50 SI” value is listed as 23,15.

Turning to `Fc1ccc(-n2cc[n+](-c3ccc4ccccc4n3)[c]2[Au-][Cl])cc1` [Complexe 34], the “Indice de sélectivité CC50/IC50 SI” value in series [2] (setting [6]) is on record as 474,17.

With `FC(F)(F)Oc1ccc(-n2cc[n+](Cc3ccccc3)[c]2[Au-][Cl])cc1` [Complexe 21], the “Indice de sélectivité CC50/IC50 SI” value in series [2] (setting [6]) is 67,85.

As to `CC(C)[n+]1ccn(-c2cccc(OC(F)(F)F)c2)[c]1[Au-][Cl]` [Complexe 28], in series [2] (setting [6]), the “Indice de sélectivité CC50/IC50 SI” value is 178.52.

For the molecule `FC(F)(F)Oc1ccc(-n2cc[n+](-c3ccc4ccccc4n3)[c]2[Au-][Cl])cc1` [Complexe 31], the “Indice de sélectivité CC50/IC50 SI” value in series [2] (setting [6]) is listed as 136,42.

As to `FC(F)(F)Oc1cccc(-n2cc[n+](-c3ccc4ccccc4n3)c2)c1` [compound 18, Chlorurede 3-(Quinolin-2-yl)-1-(3-(trifluoromethoxy)phenyl)-1H-imidazol-3-ium], the IC50 in series [2] (setting [5]) is over 50 µM.

With `CC(=O)OCC1OC([S][Au-][c]2n(-c3ccc(F)cc3)cc[n+]2C(C)C)C(OC(C)=O)C(OC(C)=O)C1OC(C)=O` (stereo not shown) [Complexe 40], the “Indice de sélectivité CC50/IC50 SI” value in series [2] (setting [6]) is on record as 13.43.
